From patent US9920010B2, “CXCR7 receptor modulators” (IDORSIA PHARMACEUTICALS LTD, priority 2013, dated 2018)

What follows are compounds tested against T1, CXCR7 (Homo sapiens, UniProt P25106) (assay: PathHunter CHO-K1 CXCR7 b-arrestin recruitment assay (CXCR7 agonistic activity)). Settings: PathHunter CHO-K1 CXCR7 b-arrestin cell line.
T1 construct: host or cells: CHO-K1 (PathHunter CHO-K1 CXCR7 b-arrestin cell line, stably transfected)
Assay type: cell-based
Summary of the method: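 Stable CHO-K1 line with C-terminally ProLink-tagged CXCR7 and β-arrestin 2–EA fusion; β-arrestin recruitment restores β-gal activity, read by chemiluminescence after 1 h RT detection. Cells seeded 24 h, starved in OPTIMEM 3–4 h, exposed to compounds 90 min at 37 °C in HBSS/HEPES/BSA. Geometric-mean EC50 from repeated measurements.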

T1 sequence (P25106 whole entry): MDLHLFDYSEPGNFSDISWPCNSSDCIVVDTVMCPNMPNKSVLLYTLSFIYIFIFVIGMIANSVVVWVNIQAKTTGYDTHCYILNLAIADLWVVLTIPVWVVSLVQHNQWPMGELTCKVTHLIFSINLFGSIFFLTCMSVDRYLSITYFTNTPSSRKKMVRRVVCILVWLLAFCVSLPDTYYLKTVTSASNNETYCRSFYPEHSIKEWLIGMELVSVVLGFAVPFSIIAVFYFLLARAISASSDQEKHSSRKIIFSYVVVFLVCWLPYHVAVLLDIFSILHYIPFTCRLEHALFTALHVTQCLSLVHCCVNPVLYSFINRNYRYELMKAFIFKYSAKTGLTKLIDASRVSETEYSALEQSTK
T1 sequence (P32121 whole entry partner): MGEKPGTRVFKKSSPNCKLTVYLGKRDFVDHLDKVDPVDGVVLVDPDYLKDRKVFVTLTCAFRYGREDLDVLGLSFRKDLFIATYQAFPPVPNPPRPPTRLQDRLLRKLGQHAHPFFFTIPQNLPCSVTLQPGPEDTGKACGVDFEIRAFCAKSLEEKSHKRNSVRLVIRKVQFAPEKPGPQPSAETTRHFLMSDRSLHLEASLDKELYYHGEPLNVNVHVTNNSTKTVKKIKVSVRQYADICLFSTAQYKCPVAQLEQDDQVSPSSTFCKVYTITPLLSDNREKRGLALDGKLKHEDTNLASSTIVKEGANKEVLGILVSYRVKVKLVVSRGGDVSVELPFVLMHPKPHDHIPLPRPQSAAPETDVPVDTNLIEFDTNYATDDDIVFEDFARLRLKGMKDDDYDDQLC

Structure (SMILES)	EC50 [nM]
CN(C)CCN(Cc1ncccc1Cl)C(=O)/C=C/c1cccc2c1CCN(CC1CC1)C2 [Example 333, (E)-N-(3-Chloro-pyridin-2-ylmethyl)-3-(2-cyclopropylmethyl-1,2,3,4-tetrahydro-isoquinolin-5-yl)-N-(2-dimethylamino-ethyl)-acrylamide]	2
CN(C)CCN(Cc1cccc(Br)c1)C(=O)CNc1cccc2c1CCN(CC1CC1)C2 [Example 237, N-(3-Bromo-benzyl)-2-(2-cyclopropylmethyl-1,2,3,4-tetrahydro-isoquinolin-5-ylamino)-N-(2-dimethylamino-ethyl)-acetamide]	5
C=CCN1CCc2c(CCC(=O)N(CCN(C)C)Cc3ccccc3C(F)(F)F)cccc2C1 [Example 349, 3-(2-Allyl-1,2,3,4-tetrahydro-isoquinolin-5-yl)-N-(2-dimethylamino-ethyl)-N-(2-trifluoromethyl-benzyl)-propionamide]	12
CN(C)CCN(Cc1ccccc1Cl)C(=O)CNc1cccc2c1C(C)(C)CN(CC1CC1)C2 [Example 577, N-(2-Chloro-benzyl)-2-(2-cyclopropylmethyl-4,4-dimethyl-1,2,3,4-tetrahydro-isoquinolin-5-ylamino)-N-(2-dimethylamino-ethyl)-acetamide]	0.9
O=C(CNc1cccc2c1CCN(CC1CC1)C2)N(Cc1ccccc1)C1CCS(=O)(=O)C1 (racemic) [Example 70, rac-N-Benzyl-2-(2-cyclopropylmethyl-1,2,3,4-tetrahydro-isoquinolin-5-ylamino)-N-(1,1-dioxo-tetrahydro-1|6-thiophen-3-yl)-acetamide]	189
CCN1CCc2cccc(NCC(=O)N(CCN(C)C)Cc3cc(C)on3)c2C1 [compound 535]	355
CNCCN(Cc1ccccc1C(F)(F)F)C(=O)CNc1cccc2c1CCN(C(=O)NC(C)(C)C)C2 [compound 406]	80
CN(C)CCN(Cc1ccc(F)cc1C(F)(F)F)C(=O)CNc1cccc2c1CCN(CC1CC1)C2 [Example 54, 2-(2-Cyclopropylmethyl-1,2,3,4-tetrahydro-isoquinolin-5-ylamino)-N-(2-dimethylamino-ethyl)-N-(4-fluoro-2-trifluoromethyl-benzyl)-acetamide]	7
CN(C)CCN(Cc1ccccc1C(F)(F)F)C(=O)CNc1c(Cl)ccc2c1CCN(CC1CC1)C2 [Example 88, 2-(6-Chloro-2-cyclopropylmethyl-1,2,3,4-tetrahydro-isoquinolin-5-ylamino)-N-(2-dimethylamino-ethyl)-N-(2-trifluoromethyl-benzyl)-acetamide]	11
CN(C)CCN(Cc1ccccc1C(F)(F)F)C(=O)NCc1cccc2c1CN(CC1CC1)CC2 [Example 569, 3-(2-Cyclopropylmethyl-1,2,3,4-tetrahydro-isoquinolin-8-ylmethyl)-1-(2-dimethylamino-ethyl)-1-(2-trifluoromethyl-benzyl)-urea]	26
CN(C)CCN(Cc1ccncc1Br)C(=O)CNc1cccc2c1CCN(CC1CC1)C2 [Example 239, N-(3-Bromo-pyridin-4-ylmethyl)-2-(2-cyclopropylmethyl-1,2,3,4-tetrahydro-isoquinolin-5-ylamino)-N-(2-dimethylamino-ethyl)-acetamide]	23
CCN1CCc2c(cccc2OCC(=O)N(CCN(C)C)Cc2ccccc2)C1 [compound 165]	61
CN1CCN(C(=O)CNc2cccc3c2CCN(CC2CC2)C3)C(c2ccccc2)C1 (racemic) [Reference Example 104, rac-2-(2-Cyclopropylmethyl-1,2,3,4-tetrahydro-isoquinolin-5-ylamino)-1-(4-methyl-2-phenyl-piperazin-1-yl)-ethanone]	233
CN(C)CCN(Cc1c(F)cccc1F)C(=O)CNc1cccc2c1CCN(CC1CC1)C2 [Example 270, 2-(2-Cyclopropylmethyl-1,2,3,4-tetrahydro-isoquinolin-5-ylamino)-N-(2,6-difluoro-benzyl)-N-(2-dimethylamino-ethyl)-acetamide]	7
CCOC(=O)CN1CCc2c(cccc2NCC(=O)N(CCN(C)C)Cc2ncccc2C(F)(F)F)C1 [Example 369, [5-({[(2-Dimethylamino-ethyl)-(3-trifluoromethyl-pyridin-2-ylmethyl)-carbamoyl]-methyl}-amino)-3,4-dihydro-1H-isoquinolin-2-yl]-acetic acid ethyl ester]	92
COCCN1CCc2c(cccc2NCC(=O)N(CCN(C)C(=O)OC(C)(C)C)Cc2ccccc2C(F)(F)F)C1 [Example 297, {2-[{2-[2-(2-Methoxy-ethyl)-1,2,3,4-tetrahydro-isoquinolin-5-ylamino]-acetyl}-(2-trifluoromethyl-benzyl)-amino]-ethyl}-methyl-carbamic acid tert-butyl ester]	461
O=C(CNc1cccc2c1CCN(CC1CC1)C2)N(CCN1CCCC1)Cc1ccccc1C(F)(F)F [Example 62, 2-(2-Cyclopropylmethyl-1,2,3,4-tetrahydro-isoquinolin-5-ylamino)-N-(2-pyrrolidin-1-yl-ethyl)-N-(2-trifluoromethyl-benzyl)-acetamide]	1

Structure (SMILES)	EC50 [nM]
CCOC(=O)N1CCc2c(cccc2NCC(=O)N(CCN(C)C)Cc2ccccc2)C1 [compound 117]	79
CN(C)CCN(Cc1ccccc1)C(=O)/C=C/c1cccc2c1CCN(C(=O)OC(C)(C)C)C2 [Example 93, 5-{(E)-2-[Benzyl-(2-dimethylamino-ethyl)-carbamoyl]-vinyl}-3,4-dihydro-1H-isoquinoline-2-carboxylic acid tert-butyl ester]	88
CN(C)CCN(Cc1ccccc1Cl)C(=O)CNc1cccc2c1CN(CC1CC1)CC2(C)C [compound 197]	257
CN(C)CCN(Cc1ccccc1)C(=O)/C=C/c1cccc2c1CCN(CC1CC1)C2 [compound 143, (E)-N-Benzyl-3-(2-cyclopropylmethyl-1,2,3,4-tetrahydro-isoquinolin-5-yl)-N-(2-dimethylamino-ethyl)-acrylamide]	3
CC(C)(O)CN(Cc1ncccc1Cl)C(=O)CNc1cccc2c1CCN(CC1CC1)C2 [Example 251, N-(3-Chloro-pyridin-2-ylmethyl)-2-(2-cyclopropylmethyl-1,2,3,4-tetrahydro-isoquinolin-5-ylamino)-N-(2-hydroxy-2-methyl-propyl)-acetamide]	24
C/C(=C\c1ccccc1)CN(CCC1CCCN1C)C(=O)CNc1cccc2c1CCN(CC1CC1)C2 (racemic) [Example 61, rac-2-(2-Cyclopropylmethyl-1,2,3,4-tetrahydro-isoquinolin-5-ylamino)-N-((E)-2-methyl-3-phenyl-allyl)-N-[2-(1-methyl-pyrrolidin-2-yl)-ethyl]-acetamide]	5
CN(C)CCN(Cc1ccccc1)C(=O)CNc1cccc2c1CN(CC1CC1)C2 [Example 209, N-Benzyl-2-(2-cyclopropylmethyl-2,3-dihydro-1H-isoindol-4-ylamino)-N-(2-dimethylamino-ethyl)-acetamide]	51
COCCN1CCc2c(/C=C/C(=O)N(CCN(C)C)Cc3ncccc3C(F)(F)F)cccc2C1 [Example 318, (E)-N-(2-Dimethylamino-ethyl)-3-[2-(2-methoxy-ethyl)-1,2,3,4-tetrahydro-isoquinolin-5-yl]-N-(3-trifluoromethyl-pyridin-2-ylmethyl)-acrylamide]	7
CNCCN(Cc1ccccc1C(F)(F)F)C(=O)CNc1cccc2c1CCN(C(=O)C(C)C)C2 [compound 387, 2-(2-Isobutyryl-1,2,3,4-tetrahydro-isoquinolin-5-ylamino)-N-(2-methylamino-ethyl)-N-(2-trifluoromethyl-benzyl)-acetamide]	12
CN(C)CCN(CCc1cccc(C(F)(F)F)c1)C(=O)CNc1cccc2c1CCN(CC1CC1)C2 [Example 55, 2-(2-Cyclopropylmethyl-1,2,3,4-tetrahydro-isoquinolin-5-ylamino)-N-(2-dimethylamino-ethyl)-N-[2-(3-trifluoromethyl-phenyl)-ethyl]-acetamide]	43
CN(C)CCN(Cc1ncccc1Cl)C(=O)CNc1cccc2c1CCN(CC1CC1)C2 [Example 39, N-(3-Chloro-pyridin-2-ylmethyl)-2-(2-cyclopropylmethyl-1,2,3,4-tetrahydro-isoquinolin-5-ylamino)-N-(2-dimethylamino-ethyl)-acetamide]	4
CCCN1CCc2cccc(NCC(=O)N(CCN(C)C)Cc3ccccc3C(F)(F)F)c2C1 [compound 556, N-(2-Dimethylamino-ethyl)-2-(2-propyl-1,2,3,4-tetrahydro-isoquinolin-8-ylamino)-N-(2-trifluoromethyl-benzyl)-acetamide]	8
CN1CCCC1CCN(Cc1ccccc1)C(=O)CNc1cccc2c1CCN(CC1CC1)C2 (racemic) [Example 42, rac-N-Benzyl-2-(2-cyclopropylmethyl-1,2,3,4-tetrahydro-isoquinolin-5-ylamino)-N-[2-(1-methyl-pyrrolidin-2-yl)-ethyl]-acetamide]	5
CN1CCCC1CCN(Cc1ccccc1C(F)(F)F)C(=O)CNc1cccc2c1CCN(CC1CC1)C2 (stereo not drawn) [Example 213, 2-(2-Cyclopropylmethyl-1,2,3,4-tetrahydro-isoquinolin-5-ylamino)-N-[2-(1-methyl-pyrrolidin-2-yl)-ethyl]-N-(2-trifluoromethyl-benzyl)-acetamide]	2
CNCCN(Cc1ncccc1C(F)(F)F)C(=O)CNc1cccc2c1CCN(C(=O)COC)C2 [compound 413, 2-[2-(2-Methoxy-acetyl)-1,2,3,4-tetrahydro-isoquinolin-5-ylamino]-N-(2-methylamino-ethyl)-N-(3-trifluoromethyl-pyridin-2-ylmethyl)-acetamide]	8
CCN1CCc2cccc(NCC(=O)N(CCN(C)C)Cc3cccc(C(F)(F)F)c3)c2C1 [compound 505, N-(2-Dimethylamino-ethyl)-2-(2-ethyl-1,2,3,4-tetrahydro-isoquinolin-8-ylamino)-N-(3-trifluoromethyl-benzyl)-acetamide]	42
